Source: ChEMBL document CHEMBL3046873, “Synthesis of antihyperglycemic, -glucosidase inhibitory, and DPPH free radical scavenging furanochalcones” (Med Chem Res, 2012)
Active and inactive are the calls of the source. The rule behind the calls is not given here.

Key:
[1] = target: Lysosomal alpha-glucosidase (Rattus norvegicus) (UniProt Q6P7A9); experiment: Inhibition of rat intestinal alpha-glucosidase using para-nitrophenyl-alpha-D-glucopyranoside as substrate at 25 ug/ml incubated for 5 min prior to substrate addition measured after 5 min by spectrophotometric analysis
Rattus norvegicus [2] = experiment: Antihyperglycemic activity in starch-induced post-parandial hyperglycemic Rattus norvegicus Wistar (rat) model assessed as decrease in plasma glucose level at 10 mg/kg, po administered via gastric intubation by glucose-oxidase test; type: functional, organism-based; set-up: dose 10 mg/kg; settings: TDE = time-dependent effect
Rattus norvegicus [3] = experiment: Antihyperglycemic activity in starch-induced post-parandial hyperglycemic Rattus norvegicus Wistar (rat) model assessed as decrease in plasma AUC at 10 mg/kg, po administered via gastric intubation administered 15 min followed by starch challenge measured after 30 to 120 min by glucose-oxidase test; type: functional, organism-based; set-up: dose 10 mg/kg
[4] = test system: Radical scavenging activity; experiment: Antioxidant activity assessed as DPPH free radical scavenging activity at 20 ug/ml after 30 min by spectrophotometric analysis; type: functional
[5] = test system: Radical scavenging activity; experiment: Antioxidant activity assessed as concentration required for 50% DPPH free radical scavenging activity after 30 min by spectrophotometric analysis; type: functional
Rattus norvegicus [6] = experiment: Antihyperglycemic activity in starch-induced post-parandial hyperglycemic Rattus norvegicus Wistar (rat) model assessed as decrease in plasma glucose level at 50 mg/kg, po administered via gastric intubation by glucose-oxidase test; type: functional, organism-based; set-up: dose 50 mg/kg; settings: TDE = time-dependent effect
Rattus norvegicus [7] = experiment: Antihyperglycemic activity in starch-induced post-parandial hyperglycemic Rattus norvegicus Wistar (rat) model assessed as decrease in plasma AUC at 50 mg/kg, po administered via gastric intubation administered 15 min followed by starch challenge measured after 30 to 120 min by glucose-oxidase test; type: functional, organism-based; set-up: dose 50 mg/kg

Lysosomal alpha-glucosidase (Rattus norvegicus), sequence (Q6P7A9 whole entry): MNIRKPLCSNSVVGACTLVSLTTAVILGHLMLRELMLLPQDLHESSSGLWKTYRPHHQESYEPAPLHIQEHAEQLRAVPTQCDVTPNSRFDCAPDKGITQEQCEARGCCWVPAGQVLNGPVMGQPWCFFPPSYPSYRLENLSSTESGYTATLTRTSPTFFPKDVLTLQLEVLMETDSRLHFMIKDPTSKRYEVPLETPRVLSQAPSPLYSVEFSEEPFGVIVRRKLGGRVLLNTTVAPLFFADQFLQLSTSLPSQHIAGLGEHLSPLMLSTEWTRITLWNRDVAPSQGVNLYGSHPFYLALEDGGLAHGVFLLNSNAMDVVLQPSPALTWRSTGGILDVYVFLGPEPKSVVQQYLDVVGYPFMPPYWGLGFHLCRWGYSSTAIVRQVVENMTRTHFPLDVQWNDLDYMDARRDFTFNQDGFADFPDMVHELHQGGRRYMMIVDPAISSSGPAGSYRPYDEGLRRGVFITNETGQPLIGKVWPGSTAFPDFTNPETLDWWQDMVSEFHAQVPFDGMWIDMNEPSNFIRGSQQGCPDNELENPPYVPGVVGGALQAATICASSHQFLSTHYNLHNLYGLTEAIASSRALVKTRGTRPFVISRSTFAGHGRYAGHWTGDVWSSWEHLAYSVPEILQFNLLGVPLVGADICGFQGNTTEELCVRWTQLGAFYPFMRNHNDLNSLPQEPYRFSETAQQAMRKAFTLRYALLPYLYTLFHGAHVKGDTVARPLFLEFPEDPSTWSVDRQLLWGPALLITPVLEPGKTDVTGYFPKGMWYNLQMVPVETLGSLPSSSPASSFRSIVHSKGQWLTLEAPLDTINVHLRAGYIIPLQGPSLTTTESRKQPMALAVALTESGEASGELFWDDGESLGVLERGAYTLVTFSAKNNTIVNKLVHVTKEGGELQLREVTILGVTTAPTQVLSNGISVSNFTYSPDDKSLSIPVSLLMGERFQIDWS

Structure (SMILES)	inhibition [1]	Activity [4]	Activity [5]	other results
C[C@H]1O[C@H](O[C@H]2[C@H](O)[C@@H](O)[C@@H](O[C@H]3[C@H](O)[C@@H](O)C(O)O[C@@H]3CO)O[C@@H]2CO)[C@H](O)[C@@H](O)[C@@H]1N[C@H]1C=C(CO)[C@@H](O)[C@H](O)[C@H]1O (stereo not given in full)	–	–	–	Activity (Rattus norvegicus [2]): tde; Activity (Rattus norvegicus [3]): Active
COc1cc(OC)c(OC)cc1/C=C/C(=O)c1cc2ccoc2cc1O	68%	17.1%	–	–
Cc1c(C)c2c(c(C)c1O)CCC(C)(C(=O)O)O2 (stereo not given)	–	99.5%	4.8 µM	–
COc1ccc(/C=C/C(=O)c2ccc3occc3c2O)cc1	94.8%	–	–	–
O=C(/C=C/c1ccc(O)cc1)c1cc2ccoc2cc1O	8.77%	73.2%	12 µM	–
O=C(/C=C/c1ccccc1)c1cc2ccoc2cc1O	67.6%	9.91%	–	–
COc1ccc(/C=C/C(=O)c2ccc3occc3c2O)cc1OC	89.5%	–	–	Activity (Rattus norvegicus [6]): tde; Activity (Rattus norvegicus [7]): Active
O=C(/C=C/c1ccc(O)c(O)c1)c1cc2ccoc2cc1O	62.7%	69.8%	26.2 µM	–
O=C(/C=C/c1ccccc1)c1ccc2occc2c1O	20.8%	7.57%	–	–
COc1cc(/C=C/C(=O)c2ccc3occc3c2O)ccc1O	45%	54.2%	–	–

Now from value to compound, other results behind:

inhibition [1]	Structure (SMILES)	Activity [4]	Activity [5]	other results
48.9%	COc1ccc(/C=C/C(=O)c2cc3ccoc3cc2O)cc1	–	–	–
89.3%	COc1ccc(/C=C/C(=O)c2cc3ccoc3cc2O)cc1OC	8.78%	–	–
65.7%	O=C(/C=C/c1ccc(O)cc1)c1ccc2occc2c1O	75.8%	17.8 µM	–
52.8%	COc1cc(/C=C/C(=O)c2cc3ccoc3cc2O)ccc1O	42.1%	–	–
67.3%	COc1ccc(/C=C/C(=O)c2ccc3occc3c2O)c(OC)c1OC	7.3%	–	–
61.5%	O=C(/C=C/c1ccc(O)c(O)c1)c1ccc2occc2c1O	67.9%	29.7 µM	–
